Molecular target: T1, Receptor-interacting serine/threonine-protein kinase 1 (Homo sapiens, UniProt Q13546)
T1 sequence (Q13546 whole entry): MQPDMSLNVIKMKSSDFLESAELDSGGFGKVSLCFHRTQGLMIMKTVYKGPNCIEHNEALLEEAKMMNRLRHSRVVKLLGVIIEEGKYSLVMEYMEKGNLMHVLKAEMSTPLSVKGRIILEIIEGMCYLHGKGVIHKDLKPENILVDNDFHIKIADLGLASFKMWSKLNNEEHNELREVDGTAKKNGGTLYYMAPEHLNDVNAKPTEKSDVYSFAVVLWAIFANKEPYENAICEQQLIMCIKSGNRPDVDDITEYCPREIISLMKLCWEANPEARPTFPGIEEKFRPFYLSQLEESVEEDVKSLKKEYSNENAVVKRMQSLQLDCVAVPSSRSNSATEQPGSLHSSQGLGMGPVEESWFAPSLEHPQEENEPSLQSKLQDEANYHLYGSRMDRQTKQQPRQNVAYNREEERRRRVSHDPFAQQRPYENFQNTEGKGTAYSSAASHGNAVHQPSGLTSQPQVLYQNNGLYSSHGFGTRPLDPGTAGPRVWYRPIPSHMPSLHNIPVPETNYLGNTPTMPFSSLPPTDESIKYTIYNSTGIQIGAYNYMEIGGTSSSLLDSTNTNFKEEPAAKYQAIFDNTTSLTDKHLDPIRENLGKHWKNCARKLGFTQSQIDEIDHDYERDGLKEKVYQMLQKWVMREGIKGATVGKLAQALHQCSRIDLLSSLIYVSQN
Test: Binding affinity to RIP1 (unknown origin) by fluorescence polarization assay

## O=C(N[C@H]1CNc2cc(Cl)ccc2NC1=O)c1nnc(Cc2ccccc2)[nH]1
  IC50: 20 nM
